Assay results as given in ChEMBL document CHEMBL1201862, “PubChem BioAssay data set” (2004).
The source made the active and inactive calls.

Tests used:
[1] = molecular target: T1, Oxysterols receptor LXR-beta (Homo sapiens, UniProt P55055); type: functional, cell-based;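 further: agonist activity at LXR measured by a cell-based luminescence readout across a dose range, run as a counterscreen for daf-12 agonists; potency for activation of Gal4-LXR reporter so compounds are agonists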
T1 sequence (P55055 whole entry): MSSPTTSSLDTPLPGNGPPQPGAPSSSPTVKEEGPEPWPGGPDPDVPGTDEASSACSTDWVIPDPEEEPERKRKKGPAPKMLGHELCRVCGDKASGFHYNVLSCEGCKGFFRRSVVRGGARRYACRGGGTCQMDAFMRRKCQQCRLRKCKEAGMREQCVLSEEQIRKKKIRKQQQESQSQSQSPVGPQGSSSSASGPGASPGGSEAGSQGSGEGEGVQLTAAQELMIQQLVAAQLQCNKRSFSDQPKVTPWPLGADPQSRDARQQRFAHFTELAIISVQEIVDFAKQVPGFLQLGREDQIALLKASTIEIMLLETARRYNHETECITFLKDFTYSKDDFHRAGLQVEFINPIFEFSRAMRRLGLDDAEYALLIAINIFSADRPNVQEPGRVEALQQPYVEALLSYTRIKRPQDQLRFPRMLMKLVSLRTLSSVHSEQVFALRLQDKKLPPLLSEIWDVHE

[2] = cells
[3] = molecular target: Major prion protein (Homo sapiens, UniProt P04156); type: functional, cell-based
[4] = molecular target: fMet-Leu-Phe receptor (Homo sapiens, UniProt P21462); assay: FPR ligands, dose response (AID 519); type: functional
[5] = molecular target: Cytochrome P450 2D6 (Homo sapiens, UniProt P10635);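 further: CYP2D6 member of a cytochrome P450 panel assay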
[6] = cells; conditions: HEK293
[7] = molecular target: T1, Oxysterols receptor LXR-beta; assay: LXR agonists, Gal4 luciferase reporter, dose response, counter-screen for ssDAF-12 agonist project, cell-based, luminescence, HEK293, S. stercoralis campaign (AID 720737); type: functional; conditions: read-out: IC50 (the source's name)
[8] = Luminescence-based cell-based high throughput dose response assay to identify activators of the DAF-12 from the parasite S. stercoralis (ssDAF-12).; type: functional
[9] = molecular target: T2, Trace amine-associated receptor 1 (Homo sapiens, UniProt Q96RJ0); assay: Fluorescence-based cell-based high throughput dose response assay to identify agonists of the human trace amine associated receptor 1 (TAAR1).; type: functional
T2 sequence (Q96RJ0 whole entry): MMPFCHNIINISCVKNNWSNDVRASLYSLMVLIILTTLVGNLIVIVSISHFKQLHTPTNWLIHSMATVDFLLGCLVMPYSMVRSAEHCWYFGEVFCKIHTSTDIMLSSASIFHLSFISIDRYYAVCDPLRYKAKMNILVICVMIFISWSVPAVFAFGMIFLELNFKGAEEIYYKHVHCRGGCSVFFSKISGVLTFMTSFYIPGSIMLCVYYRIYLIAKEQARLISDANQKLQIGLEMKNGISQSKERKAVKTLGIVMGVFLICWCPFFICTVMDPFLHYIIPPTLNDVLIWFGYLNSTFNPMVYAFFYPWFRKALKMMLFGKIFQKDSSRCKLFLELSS

[10] = cells; type: functional, cell-based
[11] = molecular target: T2, Trace amine-associated receptor 1; assay: Counterscreen for agonists of the human trace amine associated receptor 1 (hTAAR1): Fluorescence-based cell-based high throughput dose response assay to identify hTAAR1 agonist that also desensitize TAAR1 receptor response.; type: functional
[12] = cells; type: functional, cell-based; remark: listed apart in the source
[13] = molecular target: 1-phosphatidylinositol 4,5-bisphosphate phosphodiesterase gamma-1 (Homo sapiens, UniProt P19174); assay: Counterscreen for inhibitors of phospholipase C isozymes (PLC-B3): Fluorescence-based biochemical high throughput dose response assay to identify inhibitors of phospholipase C isozymes (PLC-gamma1).
[14] = molecular target: T3, Cytochrome P450 1A2 (Homo sapiens, UniProt P05177);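 further: PubChem cytochrome P450 panel assay, CYP1A2 panel member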
T3 sequence (P05177 whole entry): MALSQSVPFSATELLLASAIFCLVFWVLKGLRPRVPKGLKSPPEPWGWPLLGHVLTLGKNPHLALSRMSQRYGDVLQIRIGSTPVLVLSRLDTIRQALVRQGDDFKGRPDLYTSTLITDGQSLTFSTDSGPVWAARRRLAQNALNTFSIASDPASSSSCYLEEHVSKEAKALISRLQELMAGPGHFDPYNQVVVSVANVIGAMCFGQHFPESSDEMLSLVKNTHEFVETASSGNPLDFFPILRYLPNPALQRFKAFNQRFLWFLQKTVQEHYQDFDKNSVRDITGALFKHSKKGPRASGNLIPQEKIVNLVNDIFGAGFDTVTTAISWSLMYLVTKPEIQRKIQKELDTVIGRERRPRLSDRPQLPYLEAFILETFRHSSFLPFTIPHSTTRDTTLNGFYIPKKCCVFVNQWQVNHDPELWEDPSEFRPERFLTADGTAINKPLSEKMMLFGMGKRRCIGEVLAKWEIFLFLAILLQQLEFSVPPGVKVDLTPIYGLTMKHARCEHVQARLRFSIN

[15] = molecular target: 1-phosphatidylinositol 4,5-bisphosphate phosphodiesterase beta-3 (Homo sapiens, UniProt Q01970); assay: Fluorescence-based biochemical high throughput dose response assay to identify inhibitors of phospholipase C isozymes (PLC-B3).
[16] = molecular target: Cytochrome P450 2C9 (Homo sapiens, UniProt P11712)
[17] = human group III sPLA2 inhibitors, dose response, biochemical, QFRET, IC50 (AID 743457);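 further: green fluorescence rise as the enzyme cleaves BODIPY PC-A2 in liposomes; potency for inhibition of the enzyme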

Which EC50 [1] does the source give for `Brc1ccc(-c2noc(-c3ccccn3)n2)o1` here?
The EC50 was > 67.5 µM (inactive).

With `CCc1nc(SCC(=O)Nc2ccc(N(C)C)cc2)c2ccccc2n1` as the molecule, how does the IC50 [2] read?
The IC50 was > 138 µM (inactive).

What about the IC50 [3] of the same molecule?
Its IC50 is 4.47 µM (active).

With `CCOC(=O)c1ccc(NC(=O)Nc2ccc3c4c(cccc24)C(=O)N3CC)cc1` as the molecule, how does the Ki [4] read?
Its Ki is > 66.7 µM (inactive).

What about the AC50 [5] of the same molecule?
Its AC50 is 17.8 µM (inconclusive).

For `CCn1cc(C(=O)NC2CCC(C)CC2)c(=O)c2cc(S(=O)(=O)N3CCCCC3)ccc21` (stereo not drawn), which Ki [4] is on record?
Its Ki is > 66.7 µM (inactive).

Which AC50 [6] does the source give for `COc1cc(/C=C(\C#N)C(=O)NC(C)C)cc(Cl)c1O` here?
The AC50 was 50.3 µM (active).

Which EC50 [7] does the source give for `O=c1oc(-c2cc3ccccc3o2)nc2sc3c(c12)CCCC3` here?
Its EC50 is > 67.5 µM (inactive).

And the IC50 [8]?
The IC50 was > 67.5 µM (inactive).

With `Cn1cccc1CNCCc1ccccc1F` as the molecule, how does the EC50 [9] read?
Its EC50 is 1.74 µM (active).

And the IC50 [10]?
Its IC50 is > 29.9 µM (inactive).

And the IC50 [11]?
The IC50 was 8.12 µM (active).

And the EC50 [12]?
The EC50 was > 29.9 µM (inactive).

For `O=C(C[S+]([O-])c1cccc(Cl)c1)Nc1ccccc1Cl` (stereo not drawn), which IC50 [13] is on record?
The IC50 was > 122 µM (inactive).

And the AC50 [14]?
The AC50 was 15.8 µM (inconclusive).

What about the IC50 [15] of the same molecule?
The IC50 was > 122 µM (inactive).

And the AC50 [16]?
The AC50 was “inconclusive”.

Which IC50 [17] does the source give for `O=C(NN=C(S)Nc1cccc(Cl)c1)c1ccccc1OC(F)F` here?
Its IC50 is > 122 µM (inactive).
